# Measurements as given in PMC3976565 (Science (New York, N.Y.), 2013).
# Target: SelA-ΔN (Aquifex aeolicus, UniProt O67140)
# Assay: X-ray crystallography
# Format: binding
# Conditions: 3.25 A; covalent, Lys285; thiosulfate co-bound
# SelA-ΔN, sequence (O67140 62-452, stated change not applied): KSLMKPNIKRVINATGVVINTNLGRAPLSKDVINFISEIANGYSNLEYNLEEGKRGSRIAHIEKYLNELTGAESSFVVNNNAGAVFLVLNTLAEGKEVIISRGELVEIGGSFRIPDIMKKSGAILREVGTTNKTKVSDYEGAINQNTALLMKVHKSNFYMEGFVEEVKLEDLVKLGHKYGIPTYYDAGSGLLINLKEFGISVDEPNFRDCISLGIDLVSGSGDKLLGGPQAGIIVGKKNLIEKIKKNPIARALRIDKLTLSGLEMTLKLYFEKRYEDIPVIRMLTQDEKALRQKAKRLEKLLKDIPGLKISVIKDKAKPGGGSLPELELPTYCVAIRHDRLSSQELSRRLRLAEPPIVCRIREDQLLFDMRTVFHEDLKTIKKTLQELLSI
structure (smiles),measurement,value
Cc1ncc(COP(=O)(O)O)c(C=O)c1O [PLP],X-ray crystallography,SelA-ΔN in complex with thiosulfate. PLP and thiosulfate ions (TS1 to TS3) are shown
